A short description of assay [1]: Cytotoxicity against human WPE1-NA22 cells. The format is cell-based.
A further assay concerns BJ. The assay is described as follows: Cytotoxicity against human BJ cells. The class given is cell-based.
Another assay concerns MRC5. The assay is described as follows: Cytotoxicity against human MRC5 cells. The format is cell-based.
Assay [2] has as its system PC-3. The assay is described as follows: cells. The note with it: Homo sapiens, PC-3, 24 h.
Description: Cytotoxicity against human PC3 cells after 24 hrs by MTT assay
Assay [3] relates to HCT-116. The experiment in a line: cells. The note with it: Homo sapiens, HCT-116, 24 h.
Description: Cytotoxicity against human HCT116 cells after 24 hrs by MTT assay
Assay [4] has as its system MCF7. The assay is described as follows: Cytotoxicity against human MCF7 cells after 24 hrs by MTT assay. The format is functional, cell-based. The note with it: MCF7, 24 h. In general terms: Tetrazolium dyes change colour on reduction, which living cells bring about.
The next assay relates to HeLa. The assay is described as follows: Cytotoxicity against human HeLa cells. The class given is functional, cell-based.
Assay [5] has as its system PC-3. The assay is described as follows: Antiproliferative activity against human PC3 cells assessed as growth inhibition at 10 uM after 48 hrs by sulforhodamine B assay relative to control. The class given is functional. Particulars: PC-3, 48 h, read-out: GI.
A further assay deals with NCI-H460. The assay is described as follows: Antiproliferative activity against human NCI-H460 cells assessed as growth inhibition at 10 uM after 48 hrs by sulforhodamine B assay relative to control. The class given is functional. The note with it: NCI-H460, 48 h, read-out: GI. On the technique in general: Sulforhodamine B stains cellular protein and so reports cell mass.

The subject of another assay is K562. The experiment in a line: Antiproliferative activity against human K562 cells assessed as growth inhibition at 10 uM after 48 hrs by sulforhodamine B assay relative to control. The class given is functional. Particulars: K562, 48 h, read-out: GI.
Another assay has as its system A549. The experiment in a line: Antiproliferative activity against human A549/ATCC cells assessed as growth inhibition at 10 uM after 48 hrs by sulforhodamine B assay relative to control. The class given is functional. The note with it: A549, 48 h, read-out: GI.
The test system of assay [6] is MCF7. The experiment in a line: Antiproliferative activity against human MCF7 cells assessed as growth inhibition at 10 uM after 48 hrs by sulforhodamine B assay relative to control. The class given is functional. Particulars: MCF7, 48 h, read-out: GI.
In a further assay the test system is HL-60(TB). The assay is described as follows: Antiproliferative activity against human HL-60(TB) cells assessed as growth inhibition at 10 uM after 48 hrs by sulforhodamine B assay relative to control. The class given is functional. The note with it: HL-60, 48 h, read-out: GI.
For assay [7], the system named is HCT-116. The assay is described as follows: Antiproliferative activity against human HCT116 cells assessed as growth inhibition at 10 uM after 48 hrs by sulforhodamine B assay relative to control. The class given is functional. Particulars: HCT-116, 48 h, read-out: GI.
In the next assay the test system is UO-31. The experiment in a line: Antiproliferative activity against human UO31 cells assessed as growth inhibition at 10 uM after 48 hrs by sulforhodamine B assay relative to control. The format is functional. The note with it: UO-31, 48 h, read-out: GI.
The next assay deals with T47D. The assay is described as follows: Antiproliferative activity against human T47D cells assessed as growth inhibition at 10 uM after 48 hrs by sulforhodamine B assay relative to control. The format is functional. The note with it: read-out: GI.
The test system of a further assay is SR. The experiment in a line: Antiproliferative activity against human SR cells assessed as growth inhibition at 10 uM after 48 hrs by sulforhodamine B assay relative to control. The format is functional. The note with it: read-out: GI.
Another assay has as its system UACC-62. The assay is described as follows: Antiproliferative activity against human UACC62 cells assessed as growth inhibition at 10 uM after 48 hrs by sulforhodamine B assay relative to control. The format is functional. Particulars: UACC-62, 48 h, read-out: GI.
Another assay concerns OVCAR-4. The experiment in a line: Antiproliferative activity against human OVCAR4 cells assessed as growth inhibition at 10 uM after 48 hrs by sulforhodamine B assay relative to control. The format is functional. Particulars: OVCAR-4, 48 h, read-out: GI.
The test system of a further assay is LOX IMVI. The assay is described as follows: Antiproliferative activity against human LOXIMVI cells assessed as growth inhibition at 10 uM after 48 hrs by sulforhodamine B assay relative to control. The format is functional. The note with it: read-out: GI.
For a further assay, the system named is CAKI-1. The experiment in a line: Antiproliferative activity against human Caki1 cells assessed as growth inhibition at 10 uM after 48 hrs by sulforhodamine B assay relative to control. Particulars: CAKI-1, 48 h, read-out: GI. The format is functional.
A further assay concerns MDA-MB-468. The experiment in a line: Antiproliferative activity against human MDA-MB-468 cells assessed as growth inhibition at 10 uM after 48 hrs by sulforhodamine B assay relative to control. The format is functional. The note with it: MDA-MB-468, 48 h, read-out: GI.
A further assay concerns SK-MEL-5. The experiment in a line: Antiproliferative activity against human SK-MEL-5 cells assessed as growth inhibition at 10 uM after 48 hrs by sulforhodamine B assay relative to control. The class given is functional. The note with it: SK-MEL-5, 48 h, read-out: GI.
A further assay relates to SF-295. The experiment in a line: Antiproliferative activity against human SF295 cells assessed as growth inhibition at 10 uM after 48 hrs by sulforhodamine B assay relative to control. The class given is functional. Particulars: SF-295, 48 h, read-out: GI.
The test system of the next assay is NCI/ADR-RES. The experiment in a line: Antiproliferative activity against human NCI/ADR-RES cells assessed as growth inhibition at 10 uM after 48 hrs by sulforhodamine B assay relative to control. The class given is functional. The note with it: read-out: GI.
Another assay relates to HCT-15. The assay is described as follows: Antiproliferative activity against human HCT15 cells assessed as growth inhibition at 10 uM after 48 hrs by sulforhodamine B assay relative to control. The format is functional. Particulars: HCT-15, 48 h, read-out: GI.
A further assay has as its system ACHN. The assay is described as follows: Antiproliferative activity against human ACHN cells assessed as growth inhibition at 10 uM after 48 hrs by sulforhodamine B assay relative to control. The format is functional. The note with it: read-out: GI.
Another assay deals with MOLT-4. The experiment in a line: Antiproliferative activity against human MOLT4 cells assessed as growth inhibition at 10 uM after 48 hrs by sulforhodamine B assay relative to control. The class given is functional. Particulars: MOLT-4, 48 h, read-out: GI.
For the next assay, the system named is NCI-H522. The experiment in a line: Antiproliferative activity against human NCI-H522 cells assessed as growth inhibition at 10 uM after 48 hrs by sulforhodamine B assay relative to control. The class given is functional. The note with it: NCI-H522, 48 h, read-out: GI.
In the next assay the test system is NCI-H322M. The assay is described as follows: Antiproliferative activity against human NCI-H322M cells assessed as growth inhibition at 10 uM after 48 hrs by sulforhodamine B assay relative to control. The note with it: read-out: GI. The format is functional.

Consider `COc1cccc2c1C(=O)c1c(O)c3c(c(O)c1C2=O)C[C@@](O)(C(=O)CO)C[C@@H]3O[C@H]1C[C@H](N)[C@H](O)[C@H](C)O1` [DOXORUBICIN], for which the IC50 (usually the concentration that gives 50% inhibition) came to 18.2 µM in [1], 17.6 µM in the assay on BJ and 14.8 µM with MRC5.
In the case of `CCOC(=O)C1=C(CSc2nc3cc(C)ccc3[nH]2)N(C)C(=O)NC1c1ccccc1` (stereo not drawn), the IC50 in the assay with PC-3 [2] is 22.3 µM; with HCT-116 [3], 9.5 µM; in the assay on MCF7 [4] it was 19.4 µM.
In the case of `CCOC(=O)C1=C(CSc2nnc(-c3ccc(C)cc3)o2)N(C)C(=O)NC1c1ccccc1` (stereo not drawn), the IC50 in the assay with PC-3 [2] stood at 61.8 µM; in the assay with HCT-116 [3] it was 36 µM; in the assay on MCF7 [4] it was 25.3 µM.
With `CNC(=O)c1cc(Oc2ccc(NC(=O)Nc3ccc(Cl)c(C(F)(F)F)c3)cc2)ccn1` [SORAFENIB], half-maximal inhibition in the assay with HeLa (IC50) was put at 0.64 µM.
As to `CCOC(=O)C1=C(CSC(=S)N2CCN(c3ccc(OC)cc3)CC2)N(C)C(=O)NC1c1ccccc1` (stereo not drawn), the inhibition of growth at 10 µM in the assay on PC-3 [5] was found to be 53%; in the assay on NCI-H460 it was 39%; in the assay with K562, 47%; with A549, 33%; in the assay with MCF7 [6], 30%; with HL-60(TB) it was 32%. In addition, the inhibition of growth at 10 µM with HCT-116 [7] was 57%; in the assay with UO-31, 55%; in the assay with T47D it was 59%; in the assay on SR, 63%; with UACC-62 it was 42%; in the assay with OVCAR-4 it was 29%. Further, the inhibition of growth at 10 µM in the assay on LOX IMVI amounted to 33%; with CAKI-1, 26%; in the assay with MDA-MB-468, 21%; with SK-MEL-5, 51%; in the assay with SF-295, 15%; in the assay on NCI/ADR-RES it was 13%. For the same compound, the inhibition of growth at 10 µM stood at 60% in the assay on HCT-15; 21% in the assay on ACHN; 49% in the assay with MOLT-4; 37% in the assay on NCI-H522; 17% in the assay on NCI-H322M.

Values taken from ChEMBL document CHEMBL4270553, “Synthesis and anticancer activity of new dihydropyrimidinone derivatives” (Eur J Med Chem, 2018).
